Patent US20170280720A1, “ARGININE […] INHIBITORS AND USES THEREOF” (EPIZYME, INC., priority 2014, published 2017)
pIC50: −log10 of the molar value. Counter-ions that a name gives are not always drawn.

Biological target: T1, human PRMT1 (Homo sapiens, UniProt Q99873)
T1 construct: GST-tagged PRMT1; made in house; host or cells: High Five insect cells (baculovirus, pFastBacI)
Test: PRMT1 biochemical assay (3H-SAM Flashplate, peptide substrate)
Settings: read-out: PRMT1_ IC50
How it was run: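 FLAG-tagged full-length human PRMT1 (0.5 nM, GST-tagged, insect-cell expressed) preincubated 30 min at RT with compound, then biotinylated histone H4 36-50 peptide (20 nM) plus 200 nM 3H-SAM and 1.5 uM SAM in Bicine pH 7.6, 2% DMSO. 3H-methylated peptide captured on streptavidin Flashplate; IC50 from 3/4-parameter fit.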

T1 sequence (Q99873 with tags, fused parts or gaps): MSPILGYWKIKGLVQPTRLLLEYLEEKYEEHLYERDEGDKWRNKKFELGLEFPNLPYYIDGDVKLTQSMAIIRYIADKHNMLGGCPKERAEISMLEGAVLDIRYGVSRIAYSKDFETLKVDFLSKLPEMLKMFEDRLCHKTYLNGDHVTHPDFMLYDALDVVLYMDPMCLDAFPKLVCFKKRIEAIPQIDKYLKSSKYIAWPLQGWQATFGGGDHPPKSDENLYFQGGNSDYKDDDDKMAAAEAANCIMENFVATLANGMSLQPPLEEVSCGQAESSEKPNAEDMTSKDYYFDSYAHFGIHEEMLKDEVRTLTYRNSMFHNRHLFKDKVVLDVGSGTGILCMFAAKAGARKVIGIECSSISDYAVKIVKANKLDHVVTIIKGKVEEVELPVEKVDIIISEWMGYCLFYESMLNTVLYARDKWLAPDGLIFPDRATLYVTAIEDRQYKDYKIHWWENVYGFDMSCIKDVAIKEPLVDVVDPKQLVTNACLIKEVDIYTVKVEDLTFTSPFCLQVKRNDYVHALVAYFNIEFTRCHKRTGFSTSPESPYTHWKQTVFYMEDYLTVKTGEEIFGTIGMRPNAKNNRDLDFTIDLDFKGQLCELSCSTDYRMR

pIC50 | SMILES
6.61 | CNCCN(C)Cc1cccc(-c2cc(C(=O)NCCCC(=O)NCC3CCOCC3)c3cnn(C(C)C)c3n2)c1 [Compound 60]
6.59 | CNCCN(C)Cc1cccc(-c2cc(N3CCOCC3)n3ncc(C(C)C)c3n2)c1 [Compound 62, N1-(3-(3-isopropyl-7-morpholinopyrazolo[1,5-a]pyrimidin-5-yl)benzyl)-N1,N2-dimethylethane-1,2-diamine formate]
6.56 | CNCCN(C)Cc1cccc(-c2cc(N3CCOCC3)c3cnn(C(C)C)c3n2)c1 [Compound 68]
6.11 | CNCCN(C)Cc1cccc(-c2cc(OC)c3cnn(C(C)C)c3n2)c1 [Compound 124]
6.36 | CNCCN(C)Cc1cccc(-c2ccc3ncn(C)c3c2)c1 [Compound 92]
6.51 | CNCCN(C)Cc1cccc(-c2ccc3nc[nH]c3c2)c1 [Compound 75]
6.57 | CC(C)n1ncc2c(C(=O)NCc3ccccc3F)cc(-c3cccc(CN(C)CCN)c3)nc21 [Compound 65]
6.53 | NCCNCc1ccc(-c2ccc3ncn(CC4CCNCC4)c3c2)cc1 [Compound 70]
6.28 | NCCNCc1ccc(-c2ccc3ncn(Cc4ccc(C(=O)N5CCCC5)cc4)c3c2)cc1 [Compound 104]
6.41 | CC(C)n1ncc2c(NC(=O)OCc3ccccc3)cc(-c3cccc(CN(C)CCN)c3)nc21 [Compound 84]
6.34 | CNCCN(C)Cc1cccc(-c2nc(N3CCOCC3)c3cnn(C(C)C)c3n2)c1 [Compound 99]
6.56 | CNCCN(C)Cc1cccc(-c2cc(-c3ccoc3)c3cnn(C(C)C)c3n2)c1 [Compound 67]
6.57 | CNCCN(C)Cc1cccc(-c2cc(C(=O)NCCC(=O)NCC3CCOCC3)c3cnn(C(C)C)c3n2)c1 [Compound 64]
7.33 | CNCCN(C)Cc1cccc(-c2nc(NCc3ccccn3)c3cnn(C4CC4)c3n2)c1 [Compound 9]
6.47 | CCOC(=O)c1cc(-c2cccc(CN(C)CCNC)c2)nc2c1cnn2C(C)C [Compound 78]
6.25 | CC(C)n1ncc2c(C(=O)NCC3CCOCC3)cc(-c3cccc(CN(C)CCN)c3)nc21 [Compound 108]
6.62 | CNCCN(C)Cc1cccc(-c2cc(C(=O)N3CCCCC3)c3cnn(C(C)C)c3n2)c1 [Compound 56]
6.25 | Cc1cccc(-n2cnc3ccc(-c4ccc(CNCCN)cc4)cc32)c1 [Compound 106]
6.23 | COc1cccc(-n2cnc3ccc(-c4ccc(CNCCN)cc4)cc32)c1 [Compound 110]
6.24 | CNCCN(C)Cc1cccc(-c2nc(N(C)C3CCOCC3)c3cnn(C4CC4)c3n2)c1 [Compound 109, N1-(3-(1-cyclopropyl-4-(methyl(tetrahydro-2H-pyran-4-yl)amino)-1H-pyrazolo[3,4-d]pyrimidin-6-yl)benzyl)-N1,N2-dimethylethane-1,2-diamine]
6.47 | CNCCN(C)Cc1cccc(-c2cc(N3CCC3)c3cnn(C(C)C)c3n2)c1 [Compound 79]
6.65 | CNCCN(C)Cc1cccc(-c2cc(N3CCC(OC)CC3)c3cnn(C(C)C)c3n2)c1 [Compound 51]
6.52 | COC(=O)Nc1cc(-c2cccc(CN(C)CCN)c2)nc2c1cnn2C(C)C [Compound 71]
